Measured values published in US11833139B2 (priority 2019, dated 2023).
Values after ≈ are worked out from the molar mass of the structure shown. Where two headings read alike, the source gives them in different places.

Assays:
[1] = system: A. baumannii HUMC1; test: MIC by broth microdilution (CLSI), carbapenem-resistant clinical isolate HUMC1; type: cell-based, Acinetobacter baumannii; settings: Acinetobacter baumannii, read-out: MIC
Protocol: (§1) Two A. baumannii isolates were used in this example: HUMC1 (BV374) (Spellberg/Luna Laboratory, University of Southern California, Los Angeles, Calif.) and UNT091-1 (BV378) (UNT Health Science Center, Fort Worth, Tex.). The HUMC1 isolate is a hyper-virulent drug-resistant clinical strain isolated from a blood-stream infection. […] The isolates were stored at −80° C. as 20% (v/v) glycerol cultures.
(§2) MICs were determined by the broth microdilution method following the guidelines of the Clinical Laboratory Standards Institute (CLSI) using RPMI supplemented with […] cationic-adjusted Muller Hinton broth (CA-MHB) as assay medium. To prepare the bacterial inocula, 3-5 colonies of bacterial strains from over-night growth on ChromAgar orientation plates (CHROMagar Cat. No. RT412) were suspended in 5 mL saline. The turbidity of the bacterial suspension was adjusted to 0.5 McFarland units (equal to an optical density at 610 nm (OD610) to 0.08-0.1). This suspension was diluted 200-fold in RPMI supplemented with 10% (v/v) FCS to reach a final concentration of […] colony forming units (CFU)/mL and was used to inoculate the microtiter plates.
(§3) Serial 2-fold dilutions of the antibiotics were prepared in a separate 96-well plate polypropylene U-bottom plate (Ratiolab Cat. No. 6018111) in RPMI supplemented with 10% (v/v) FCS at 10-fold of the final test concentrations and 10 μl of the dilutions were transferred to new 96-well polystyrene U-bottom microtiter plates with a parafilm plate cover.
(§4) The plates were then inoculated with 90 μL per well of the prepared bacterial suspensions in using a multichannel pipette (Eppendorf), with the first column containing 4 wells each for growth control (no antibiotic). […] The MIC was recorded as the lowest concentration of the compound that inhibited bacterial growth by visual inspection. MICs were determined at least in duplicates and in the case of variations, the higher values are provided.

[2] = system: A. baumannii ACC00445; test: Neutropenic sepsis mouse model (CD-1 mice, IP infection); type: in vivo; settings: IV at 1 h and 5 h post-infection, 10 mg/kg
From the text: The CD-1 mice were IP infected with A. baumannii ACC00445 strain in the presence of […].

[3] = system: A. baumannii UNT091; test: MIC by broth microdilution (CLSI), carbapenem-resistant clinical isolate UNT091; type: cell-based, Acinetobacter baumannii; settings: Acinetobacter baumannii, read-out: MIC
Protocol: as §1, §2, §3, §4

## CO[C@H]1/C=C/O[C@@]2(C)Oc3c(C)c(O)c4c(O)c(c(/C=N/N5CCN(C)CC5)c(O)c4c3C2=O)NC(=O)/C(C)=C\C=C\[C@H](C)[C@H](O)[C@@H](C)[C@@H](O)[C@@H](C)[C@H](OC(C)=O)[C@@H]1C [rifampin]
[1]; HUMC1, HUMC1, CA-MHB (Table 1)
  MIC: 16 µg/mL (≈ 19.4 µM)
[1]; HUMC1, HUMC1, RPMI plus 10% FCS (Table 1)
  MIC: 16 µg/mL
[1]; HUMC1, HUMC1 parental strain, RPMI + 10% FCS (Table 2)
  MIC: 32 µg/mL
[2]
  protection against sepsis: does not
[3]; UNT091, UNT091, CA-MHB (Table 1)
  MIC: 8 µg/mL (≈ 9.72 µM)
[3]; UNT091, UNT091, RPMI plus 10% FCS (Table 1)
  MIC: 16 µg/mL
[3]; UNT091, UNT091 parental strain, RPMI + 10% FCS (Table 2)
  MIC: 2 µg/mL
